Results from ChEMBL document CHEMBL1201862, “PubChem BioAssay data set” (2004).
The source made the active and inactive calls.

Tests used:
cells [1] = test: cells
HT-1080 = test: cytotoxicity in HT1080 fibrosarcoma cells, cell-based, fluorescence readout (AID 620); assay type: functional; settings: Homo sapiens
[2] = Shn3 3'UTR reporter inhibitors, dose response, cell-based, Clone20 osteoblasts, firefly luciferase, cherry-picked (AID 624132); assay type: functional;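 also: firefly luciferase luminescence from reporter carrying the Shn3 3'UTR in osteoblasts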
[3] = target: T1, Replicative DNA helicase DnaB (Mycobacterium tuberculosis, UniProt P9WMR3); test: DnaB intein splicing inhibitors, dose response, biochemical, cell-free fluorescence (AID 449749); assay type: functional
T1 sequence (P9WMR3 whole entry): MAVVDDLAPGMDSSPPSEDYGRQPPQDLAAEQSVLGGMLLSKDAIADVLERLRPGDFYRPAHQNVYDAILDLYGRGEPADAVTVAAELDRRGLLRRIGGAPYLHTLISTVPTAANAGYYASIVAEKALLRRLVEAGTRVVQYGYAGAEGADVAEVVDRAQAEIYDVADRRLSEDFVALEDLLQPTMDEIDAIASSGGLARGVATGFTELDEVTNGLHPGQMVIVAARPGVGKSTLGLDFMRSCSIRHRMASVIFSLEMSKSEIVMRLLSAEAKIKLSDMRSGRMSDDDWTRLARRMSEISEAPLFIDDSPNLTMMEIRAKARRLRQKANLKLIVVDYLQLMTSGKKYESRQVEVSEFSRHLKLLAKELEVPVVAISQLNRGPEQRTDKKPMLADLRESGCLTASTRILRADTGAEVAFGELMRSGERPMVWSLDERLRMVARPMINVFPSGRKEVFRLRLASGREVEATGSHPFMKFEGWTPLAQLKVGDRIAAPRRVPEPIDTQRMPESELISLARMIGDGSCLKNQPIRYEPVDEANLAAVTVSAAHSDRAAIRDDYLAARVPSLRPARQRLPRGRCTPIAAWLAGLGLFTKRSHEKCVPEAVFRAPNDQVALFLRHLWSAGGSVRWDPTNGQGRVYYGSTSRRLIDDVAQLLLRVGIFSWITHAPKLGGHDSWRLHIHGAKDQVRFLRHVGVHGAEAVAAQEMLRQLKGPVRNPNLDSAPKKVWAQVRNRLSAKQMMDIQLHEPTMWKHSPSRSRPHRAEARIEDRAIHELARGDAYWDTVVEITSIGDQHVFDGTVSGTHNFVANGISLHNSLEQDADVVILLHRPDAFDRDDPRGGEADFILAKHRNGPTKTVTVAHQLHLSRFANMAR

[4] = control 3'UTR Renilla luciferase suppression, dose response, counter-screen for Shn3 inhibitor project, cell-based, Clone20-Shn3RL, cherry-picked (AID 624133); assay type: functional
[5] = growth suppression of beta-catenin-knockout colon cells, dose response, cell-based, HCT116, human colon tumor (AID 1045); assay type: functional;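 also: HCT116 colon tumor cells with beta catenin knocked out; cells exposed to compound for 60 hours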
[6] = HepG2 cell cytotoxicity, dose response, cytotoxicity control for Shn3 inhibitor project, CellTiter-Glo, cherry-picked (AID 624134); assay type: functional, cell-based
[7] = target: Luciferin 4-monooxygenase (Photinus pyralis, UniProt P08659); test: Counter Screen for Luciferase-based Assay Positives. [Related pubchem assays: 620, 618, 411 ]
Chain of Luciferin 4-monooxygenase (P08659 whole entry): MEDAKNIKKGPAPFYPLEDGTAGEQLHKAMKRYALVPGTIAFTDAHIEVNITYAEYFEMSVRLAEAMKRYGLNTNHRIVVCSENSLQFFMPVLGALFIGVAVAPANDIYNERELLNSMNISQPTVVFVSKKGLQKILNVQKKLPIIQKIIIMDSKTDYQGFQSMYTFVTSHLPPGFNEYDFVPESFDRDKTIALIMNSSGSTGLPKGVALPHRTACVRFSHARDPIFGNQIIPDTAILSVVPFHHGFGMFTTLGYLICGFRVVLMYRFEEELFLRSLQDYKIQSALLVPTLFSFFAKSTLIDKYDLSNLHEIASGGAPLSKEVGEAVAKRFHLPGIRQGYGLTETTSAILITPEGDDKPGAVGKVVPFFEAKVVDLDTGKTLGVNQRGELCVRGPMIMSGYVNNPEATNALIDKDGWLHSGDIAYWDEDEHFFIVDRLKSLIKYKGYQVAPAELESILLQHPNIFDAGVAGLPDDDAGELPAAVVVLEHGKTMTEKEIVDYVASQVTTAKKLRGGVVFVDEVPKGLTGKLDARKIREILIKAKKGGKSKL

cells [8] = assay type: functional, cell-based
[9] = growth suppression of PTEN-null colon cells, dose response, cell-based, HCT116 PTEN knockout (AID 1047); assay type: functional;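 also: HCT116 colon tumor cells with PTEN knocked out; cells exposed to compound for 60 hours before readout; potency for loss of cell viability measured by luminescence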
[10] = cytotoxicity in HPDE-C7 cells, cell-based, fluorescence, HTS (AID 430); assay type: functional; settings: Homo sapiens
[11] = cytotoxicity in KRAS-transformed pancreatic duct cells, primary screen, cell-based, fluorescence, HTS (AID 431); assay type: functional; settings: Homo sapiens;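 also: cell line used: HPDE-C7K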
cells [12] = assay type: functional, cell-based; remark: listed apart in the source
Protein RecA = target: T2, Protein RecA (Mycobacterium tuberculosis, UniProt P9WHJ3); test: Fluorescence Cell-Free Homogeneous Dose Retest to Identify Inhibitors of RecA-Intein Splicing Activity. [Related pubchem assays (depositor defined):AID2097, AID2223, AID489010, AID492950]; assay type: functional
T2 sequence (P9WHJ3 whole entry): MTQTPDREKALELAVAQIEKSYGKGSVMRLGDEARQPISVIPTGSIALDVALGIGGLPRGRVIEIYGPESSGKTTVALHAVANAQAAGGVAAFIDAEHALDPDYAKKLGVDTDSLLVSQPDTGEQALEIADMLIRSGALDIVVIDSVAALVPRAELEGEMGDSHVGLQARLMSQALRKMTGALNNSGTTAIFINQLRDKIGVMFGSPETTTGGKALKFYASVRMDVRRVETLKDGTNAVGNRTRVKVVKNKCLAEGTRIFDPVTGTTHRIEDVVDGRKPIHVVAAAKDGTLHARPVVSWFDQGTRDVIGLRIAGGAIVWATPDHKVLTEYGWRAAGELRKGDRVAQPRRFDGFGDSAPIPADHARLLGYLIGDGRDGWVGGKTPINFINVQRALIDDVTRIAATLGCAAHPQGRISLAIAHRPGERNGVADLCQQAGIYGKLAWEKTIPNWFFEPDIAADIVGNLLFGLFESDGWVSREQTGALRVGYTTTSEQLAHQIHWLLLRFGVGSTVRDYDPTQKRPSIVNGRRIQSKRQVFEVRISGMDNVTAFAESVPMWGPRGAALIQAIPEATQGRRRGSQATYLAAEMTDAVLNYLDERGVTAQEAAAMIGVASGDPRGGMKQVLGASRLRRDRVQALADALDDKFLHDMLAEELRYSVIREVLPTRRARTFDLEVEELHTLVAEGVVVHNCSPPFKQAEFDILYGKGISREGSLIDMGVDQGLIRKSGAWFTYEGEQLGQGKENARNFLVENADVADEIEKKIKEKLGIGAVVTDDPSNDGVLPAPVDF

[13] = target: T3, Neuropeptide Y receptor type 1 (Homo sapiens, UniProt P25929); test: Fluorescence-based counterscreen for agonists of NPY-Y2: cell-based high-throughput dose response assay for agonists of NPY-Y1.; assay type: functional
T3 sequence (P25929 whole entry): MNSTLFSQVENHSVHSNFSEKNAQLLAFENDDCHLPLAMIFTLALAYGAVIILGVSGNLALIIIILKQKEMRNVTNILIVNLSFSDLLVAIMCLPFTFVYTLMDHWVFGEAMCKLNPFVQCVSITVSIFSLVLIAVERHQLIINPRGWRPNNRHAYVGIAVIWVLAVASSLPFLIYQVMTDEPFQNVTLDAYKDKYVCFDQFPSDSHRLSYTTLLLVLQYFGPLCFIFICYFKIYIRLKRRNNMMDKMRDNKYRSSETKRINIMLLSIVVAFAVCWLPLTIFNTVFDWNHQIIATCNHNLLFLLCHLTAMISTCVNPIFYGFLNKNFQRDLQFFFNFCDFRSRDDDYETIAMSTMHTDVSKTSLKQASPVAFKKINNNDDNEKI

BJ [14] = test: cells; assay type: functional, cell-based; settings: Homo sapiens
[15] = Luminescence Cell-Based Dose Response HTS to Identify Inhibitors of 5'UTR Stem-Loop Driven Prion Protein mRNA Translation in H4 Neuroglioblastoma Cells. [Related pubchem assays: 1827 (Project Summary), 1813 (Primary HTS)]; assay type: functional
[16] = cytotoxicity toward DRD oncogenic fibroblasts, dose response, cell-based, non-viral oncogenic, luminescence (AID 1934); assay type: functional; settings: Homo sapiens
BJ [17] = test: cytotoxicity toward BJ-TERT-LT-ST fibroblasts, dose response, cell-based, RAS-independent, luminescence (AID 1935); assay type: functional; settings: Homo sapiens;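 also: BJ fibroblasts immortalized with TERT plus LT and ST oncogenes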
[18] = NIH-3T3 fibroblast cytotoxicity, dose response, cytotoxicity control, cell-based, fluorescence, Alamar Blue, secondary assay (AID 2327); assay type: functional;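 also: NIH-3T3 mouse fibroblasts cultured with fluconazole at 8 µg/mL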
[19] = C. albicans growth with fluconazole, confirmation, fluorescence, retest (AID 2467); assay type: functional, cell-based
BJ [20] = test: cytotoxicity toward BJ-TERT fibroblasts, dose response, cell-based, RAS-independent, luminescence (AID 1933); assay type: functional; settings: Homo sapiens
[21] = target: T4, Neuropeptide Y receptor type 2 (Homo sapiens, UniProt P49146); test: Fluorescence-based cell-based high-throughput dose response assay for agonists of NPY-Y2. [Related pubchem assays: 1703 (Screening assay (CNGC inhibitors).), 1359 (Screening assay (NPY-Y2 potentiators or agonists).), 1304 (Screening assay (NPY-Y1 potentiators or agonists).), 1710 (Screening assay (NPY-Y2 agonists).), 1791 (Summary AID.)]; assay type: functional
T4 sequence (P49146 whole entry): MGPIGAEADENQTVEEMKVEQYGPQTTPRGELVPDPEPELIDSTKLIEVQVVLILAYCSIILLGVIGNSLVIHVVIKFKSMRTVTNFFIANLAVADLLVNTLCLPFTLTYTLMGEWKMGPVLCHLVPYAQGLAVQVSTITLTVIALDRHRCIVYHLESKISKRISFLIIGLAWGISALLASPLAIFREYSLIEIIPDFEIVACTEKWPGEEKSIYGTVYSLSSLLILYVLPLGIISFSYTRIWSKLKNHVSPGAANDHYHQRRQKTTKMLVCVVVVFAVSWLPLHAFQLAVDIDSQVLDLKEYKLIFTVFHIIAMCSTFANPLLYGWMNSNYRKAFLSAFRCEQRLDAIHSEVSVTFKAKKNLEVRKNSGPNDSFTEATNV

[22] = cytotoxicity in HEK-293T cells, dose response, cytotoxicity control for TCR NF-kB inhibitor project, luminescence, T-cell screen hits (AID 489026); assay type: functional, cell-based;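 also: cells exposed to compound about 14 hours before the viability readout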
HEK293 = test: Fluorescence-based counterscreen for potentiators or agonists of NPY-Y2: cell-based high-throughput dose response assay to identify inhibitors of cyclic nucleotide gated ion channel (CNGC) activity. In this assay, the parental HEK293 cell line transfected with a cyclic-nucleotide gated ion channel (CNGC)-based cAMP sensor is used to measure inhibition of isoproterenol-induced CNGC activity by test compound.; assay type: functional; settings: Homo sapiens;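 also: stimulus is 1 µM isoproterenol at EC100 plus PDE inhibitor Ro 20-1724 at 25 µM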
[23] = inhibitors of firefly luciferase expression or activity, dose response, H4 neuroglioma cells, luminescence (AID 1990); assay type: functional, cell-based
[24] = A Cell Based Secondary Assay To Explore Cytotoxicity of Compounds that Sensitize Mycobacterium Tuberculosis to Beta-Lactam Antibiotics.; assay type: functional
[25] = MC4R antagonists, dose response, counter-screen for LGR2 antagonist project, cell-based, plate reader, cherry pick (AID 743444); assay type: functional;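 also: transfected HEK 293 cells stimulated with alpha-MSH peptide; potency of inhibitors of the alpha-MSH evoked signal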
[26] = LGR2 antagonists, dose response, cell-based, HEK293, CRE-luciferase reporter, cherry pick, set 2 (AID 743343); assay type: functional;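 also: transfected cells were stimulated with diluted bursicon conditioned medium after compound addition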
[27] = target: T5, Polyadenylate-binding protein 1 (Homo sapiens, UniProt P11940); test: PABP1 MLLE–PAM2 binding inhibitor potency, dose response, biochemical, fluorescence polarization, FITC-PAM2 peptide (AID 602259); assay type: functional; settings: read-out: IC50_Mean
T5 sequence (P11940 whole entry): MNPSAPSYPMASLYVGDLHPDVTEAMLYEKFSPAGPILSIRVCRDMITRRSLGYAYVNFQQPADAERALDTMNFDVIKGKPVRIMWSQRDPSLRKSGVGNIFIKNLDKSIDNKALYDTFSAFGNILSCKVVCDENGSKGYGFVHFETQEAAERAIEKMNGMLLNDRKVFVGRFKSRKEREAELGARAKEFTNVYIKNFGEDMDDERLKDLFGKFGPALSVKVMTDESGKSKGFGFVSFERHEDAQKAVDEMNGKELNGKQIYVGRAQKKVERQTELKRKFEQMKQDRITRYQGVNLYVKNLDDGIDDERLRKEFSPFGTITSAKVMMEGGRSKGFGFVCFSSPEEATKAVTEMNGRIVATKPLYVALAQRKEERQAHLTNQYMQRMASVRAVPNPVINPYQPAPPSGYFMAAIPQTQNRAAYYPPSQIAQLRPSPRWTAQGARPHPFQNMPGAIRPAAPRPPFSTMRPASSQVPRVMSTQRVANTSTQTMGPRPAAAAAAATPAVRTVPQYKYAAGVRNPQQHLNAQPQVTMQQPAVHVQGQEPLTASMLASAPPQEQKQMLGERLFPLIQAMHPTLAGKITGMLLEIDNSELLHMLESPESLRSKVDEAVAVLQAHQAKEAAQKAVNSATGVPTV

Genome polyprotein = Genome polyprotein (dengue virus type 2, UniProt P29990); test: Dengue-2 NS5 methyltransferase inhibitors, primary screen, biochemical, confirmation dose response (AID 588689); assay type: functional
Chain of Genome polyprotein (P29990 2492-3391 limits assumed): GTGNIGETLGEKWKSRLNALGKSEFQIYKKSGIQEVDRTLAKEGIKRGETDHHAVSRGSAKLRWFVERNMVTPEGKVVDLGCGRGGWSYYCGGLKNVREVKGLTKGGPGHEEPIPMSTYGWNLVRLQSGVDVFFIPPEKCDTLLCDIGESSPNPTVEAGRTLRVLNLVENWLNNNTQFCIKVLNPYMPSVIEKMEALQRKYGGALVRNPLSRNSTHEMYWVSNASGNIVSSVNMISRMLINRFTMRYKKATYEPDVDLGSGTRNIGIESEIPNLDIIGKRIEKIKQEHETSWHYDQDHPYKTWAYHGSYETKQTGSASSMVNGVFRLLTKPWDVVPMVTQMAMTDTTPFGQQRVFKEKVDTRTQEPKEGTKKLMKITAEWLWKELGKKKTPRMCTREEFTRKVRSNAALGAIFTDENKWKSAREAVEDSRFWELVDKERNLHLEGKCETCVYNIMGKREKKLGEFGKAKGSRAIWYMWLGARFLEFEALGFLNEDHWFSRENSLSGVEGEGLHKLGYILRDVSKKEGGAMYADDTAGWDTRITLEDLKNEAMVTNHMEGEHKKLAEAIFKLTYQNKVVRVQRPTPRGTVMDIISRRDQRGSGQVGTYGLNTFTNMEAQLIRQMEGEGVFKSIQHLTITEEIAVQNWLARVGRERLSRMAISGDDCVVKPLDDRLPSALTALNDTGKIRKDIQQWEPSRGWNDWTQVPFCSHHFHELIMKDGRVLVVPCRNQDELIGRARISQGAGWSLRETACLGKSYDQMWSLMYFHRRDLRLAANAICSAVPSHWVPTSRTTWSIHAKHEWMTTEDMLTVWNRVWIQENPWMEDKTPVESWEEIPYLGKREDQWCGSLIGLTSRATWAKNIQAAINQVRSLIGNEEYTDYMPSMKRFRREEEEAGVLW

Vero [28] = test: Vero cell cytotoxicity, cytotoxicity control for flavivirus capping enzyme inhibitors (AID 588742); assay type: functional; settings: Chlorocebus sabaeus
[29] = target: T5, Polyadenylate-binding protein 1; test: PABP1 MLLE–PAM2 interaction inhibitors, dose response, miRNA deadenylation inhibitor project, biochemical, fluorescence polarization, Cy5-PAM2 peptide, secondary (AID 602260); assay type: functional; settings: read-out: IC50_Mean
Vero [30] = test: cells; assay type: functional, cell-based; settings: Chlorocebus sabaeus
[31] = HEp-2 cell cytotoxicity, dose response, cytotoxicity control for RSV inhibitor project, HTS (AID 2410); assay type: functional; settings: human respiratory syncytial virus

Compound: COc1ccc(S(=O)(=O)NC(C)(C)C)cc1-c1nnc2c3ccccc3c(C)nn12
- IC50 (cells [1]): 8.97 µM (active)

Compound: COc1ccccc1-c1cc(C(F)(F)F)nc(S(=O)(=O)CCCC(=O)N2CCOCC2)n1
- EC50 (HT-1080): 30.8 µM (active)
- AC50 [2]: 3.02 µM (active)
- AC50 [3]: 8.15 µM (active)
- AC50 [4]: 10.2 µM (active)
- EC50 [5]: 34.4 µM (active)
- AC50 [6]: 23.2 µM (active)
- EC50 [7]: 4.85 µM (active)
- EC50 (cells [8]): > 350 µM (not active)
- EC50 [9]: 19.2 µM (active)
- EC50 [10]: 9.95 µM (active)
- EC50 [11]: 6.34 µM (active)
- EC50 (cells [12]): > 350 µM (not active)
- EC50 (Protein RecA): 4.26 µM (active)

Compound: CN(C)c1ccc(-[n+]2c(-c3ccccc3)cc(-c3ccccc3)cc2-c2ccccc2)cc1.[O-][Cl+3]([O-])([O-])[O-]
- EC50 [13]: 24.4 µM (not active)
- EC50 (BJ [14]): 3.14 µM (active)
- EC50 [15]: > 120 µM (not active)
- EC50 [16]: 3.14 µM (active)
- EC50 (BJ [17]): 3 µM (inconclusive)
- EC50 [18]: 4.87 µM (active)
- EC50 [19]: 0.132 µM (active)
- EC50 (BJ [20]): 2.81 µM (active)
- EC50 [21]: > 35.4 µM (not active)
- IC50 [22]: 55.4 µM (inactive)
- EC50 (HEK293): > 35.4 µM (not active)
- EC50 [23]: 8.27 µM (active)

Compound: O=C(c1ccccc1)N1CCC(CC2CC(c3cccc(Br)c3)=NO2)(C(=O)NCC2CCCCC2)CC1 (stereo unspecified)
- CC50 [24]: > 40 µM (active)

Compound: Cc1ccc(C(=O)n2nc(-n3cccc3)c3c(C)cc(C)nc32)cc1
- EC50 [13]: > 35.4 µM (not active)
- AC50 [25]: 1.22 µM (active)
- AC50 [26]: 13.9 µM (active)
- EC50 [21]: > 35.4 µM (not active)
- EC50 (HEK293): > 35.4 µM (not active)

Compound: COc1cc(C(=S)N2CCN(c3ccccc3Cl)CC2)cc(O)c1O
- EC50 [13]: > 35.4 µM (not active)
- IC50 [27]: > 66 µM (inactive)
- IC50 (Genome polyprotein): > 100 µM (active)
- EC50 [18]: > 150 µM (inactive)
- CC50 (Vero [28]): > 40 µM (active)
- EC50 [19]: > 38 µM (not active)
- IC50 [29]: > 66 µM (inactive)
- EC50 [21]: > 35.4 µM (not active)
- EC50 (HEK293): > 35.4 µM (not active)

Compound: Cc1[nH]c(C)c(S(=O)(=O)N2CCN(c3cccc(C(F)(F)F)c3)CC2)c1C(=O)N1CCCCC1
- IC50 (cells [1]): 23.3 µM (active)
- IC50 (Vero [30]): 22.4 µM (active)
- CC50 [31]: 17.6 µM (active)

Compound: CCC(=O)NC(=S)Nc1ccc(NC(=O)COc2ccc(Cl)c(C)c2)cc1
- IC50 (cells [1]): 39 µM (active)
- CC50 [31]: > 50 µM (active)
